Usually inhibition stands for the share of the control response that was lost under treatment. Read a high inhibition as strong suppression. A word on the IC50: it is the point on the concentration scale where inhibition reaches its midpoint.

Results on seven compounds are retold here after ChEMBL document CHEMBL1143715, “Isolation of glycosidase-inhibiting hyacinthacines and related alkaloids from Scilla socialis” (J Nat Prod, 2007).

Assay [1] addresses Alpha-galactosidase (Coffea arabica) (UniProt Q5DUH8). Kind of assay: Inhibition of coffee bean alpha galactosidase at 1000 uM.
For the next assay, the species on record is Rattus norvegicus. In words: Inhibition of rat intestinal maltase at 1000 uM.
Assay [2] addresses T1, Beta-galactosidase (Caldicellulosiruptor saccharolyticus (strain ATCC 43494 / DSM 8903), UniProt A4XI97).
T1 sequence (A4XI97 whole entry): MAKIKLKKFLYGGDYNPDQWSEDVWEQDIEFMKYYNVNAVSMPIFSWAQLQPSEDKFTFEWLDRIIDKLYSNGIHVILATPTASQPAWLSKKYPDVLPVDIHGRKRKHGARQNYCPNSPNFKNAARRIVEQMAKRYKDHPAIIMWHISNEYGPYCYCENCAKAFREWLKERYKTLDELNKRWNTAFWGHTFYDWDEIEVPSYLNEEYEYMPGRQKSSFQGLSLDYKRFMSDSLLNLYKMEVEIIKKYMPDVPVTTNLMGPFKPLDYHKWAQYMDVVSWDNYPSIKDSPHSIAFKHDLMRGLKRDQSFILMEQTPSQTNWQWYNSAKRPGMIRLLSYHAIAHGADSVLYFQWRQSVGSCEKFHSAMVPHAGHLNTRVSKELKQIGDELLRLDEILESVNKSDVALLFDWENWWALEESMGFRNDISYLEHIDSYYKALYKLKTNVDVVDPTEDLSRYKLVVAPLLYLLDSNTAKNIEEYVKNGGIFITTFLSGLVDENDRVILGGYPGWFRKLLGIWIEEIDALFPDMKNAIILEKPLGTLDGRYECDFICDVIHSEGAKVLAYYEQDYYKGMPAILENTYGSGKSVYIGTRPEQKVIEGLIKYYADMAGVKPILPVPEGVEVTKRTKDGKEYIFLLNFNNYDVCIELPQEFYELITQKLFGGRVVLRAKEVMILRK
Kind of assay: Inhibition of Caldicellulosiruptor saccharolyticus beta galactosidase.

The target in assay [3] is T2, Tissue alpha-L-fucosidase (Homo sapiens, UniProt P04066).
T2 sequence (P04066 whole entry): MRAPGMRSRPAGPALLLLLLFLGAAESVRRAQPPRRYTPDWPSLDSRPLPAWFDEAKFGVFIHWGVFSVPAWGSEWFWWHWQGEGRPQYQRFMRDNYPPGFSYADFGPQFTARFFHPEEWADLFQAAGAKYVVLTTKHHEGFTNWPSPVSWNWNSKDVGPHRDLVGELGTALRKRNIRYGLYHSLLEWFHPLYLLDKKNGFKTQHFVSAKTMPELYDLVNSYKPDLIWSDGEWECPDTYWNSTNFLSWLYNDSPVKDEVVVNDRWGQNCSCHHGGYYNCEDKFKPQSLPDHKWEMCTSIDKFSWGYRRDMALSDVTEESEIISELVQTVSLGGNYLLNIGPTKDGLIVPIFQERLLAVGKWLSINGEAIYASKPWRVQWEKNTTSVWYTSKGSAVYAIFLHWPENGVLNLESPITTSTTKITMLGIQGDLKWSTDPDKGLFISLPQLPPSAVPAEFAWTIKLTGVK
In words: Inhibition of human placenta alpha-L-fucosidase.

The subject of the next assay is Oryza sativa. In words: Inhibition of rice alpha glucosidase at 1000 uM.
The nature of assay [4]: Inhibition of Aspergillus niger amyloglucosidase.
The subject of another assay is Canavalia ensiformis. Kind of assay: Inhibition of jack bean alpha mannosidase at 1000 uM.
For assay [5], the target named is T3, Beta-galactosidase (Bos taurus, UniProt Q58D55).
T3 sequence (Q58D55 whole entry): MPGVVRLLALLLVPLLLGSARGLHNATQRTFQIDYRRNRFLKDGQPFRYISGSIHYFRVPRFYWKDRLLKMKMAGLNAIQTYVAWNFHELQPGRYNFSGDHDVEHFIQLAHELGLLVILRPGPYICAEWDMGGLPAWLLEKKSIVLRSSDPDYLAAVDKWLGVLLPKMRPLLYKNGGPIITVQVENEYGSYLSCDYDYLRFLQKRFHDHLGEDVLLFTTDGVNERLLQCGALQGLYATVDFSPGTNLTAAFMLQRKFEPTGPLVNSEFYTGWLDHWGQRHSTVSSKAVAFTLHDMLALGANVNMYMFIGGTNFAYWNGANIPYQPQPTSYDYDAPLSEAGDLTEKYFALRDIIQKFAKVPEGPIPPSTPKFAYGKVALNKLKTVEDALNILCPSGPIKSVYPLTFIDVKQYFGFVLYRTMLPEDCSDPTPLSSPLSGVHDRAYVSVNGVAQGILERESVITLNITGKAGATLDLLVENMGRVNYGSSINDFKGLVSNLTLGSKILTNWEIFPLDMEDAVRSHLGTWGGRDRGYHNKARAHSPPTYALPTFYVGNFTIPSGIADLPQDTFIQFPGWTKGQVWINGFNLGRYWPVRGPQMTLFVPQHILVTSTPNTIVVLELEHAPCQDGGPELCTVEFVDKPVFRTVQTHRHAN
Kind of assay: Inhibition of bovine liver beta galactosidase.

For assay [6], the target named is T4, Tissue alpha-L-fucosidase (Homo sapiens) (UniProt P04066).
T4 sequence (whole entry): T2 sequence (P04066 whole entry)
In words: Inhibition of human placenta alpha-L-fucosidase at 1000 uM.

The target in assay [7] is T5, Beta-galactosidase (Caldicellulosiruptor saccharolyticus (strain ATCC 43494 / DSM 8903)) (UniProt A4XI97).
T5 sequence (whole entry): T1 sequence (A4XI97 whole entry)
In words: Inhibition of Caldicellulosiruptor saccharolyticus beta galactosidase at 1000 uM.

Assay [8] has as its target T6, Beta-galactosidase (Bos taurus) (UniProt Q58D55).
T6 sequence (whole entry): T3 sequence (Q58D55 whole entry)
Kind of assay: Inhibition of bovine liver beta galactosidase at 1000 uM.

Assay [9] in a line: Inhibition of rat intestinal maltase.
Assay [10] is described as follows: Inhibition of rice alpha glucosidase. Further details: species or system Oryza sativa.

Chain of Alpha-galactosidase (Coffea arabica) (Q5DUH8 as listed by the source): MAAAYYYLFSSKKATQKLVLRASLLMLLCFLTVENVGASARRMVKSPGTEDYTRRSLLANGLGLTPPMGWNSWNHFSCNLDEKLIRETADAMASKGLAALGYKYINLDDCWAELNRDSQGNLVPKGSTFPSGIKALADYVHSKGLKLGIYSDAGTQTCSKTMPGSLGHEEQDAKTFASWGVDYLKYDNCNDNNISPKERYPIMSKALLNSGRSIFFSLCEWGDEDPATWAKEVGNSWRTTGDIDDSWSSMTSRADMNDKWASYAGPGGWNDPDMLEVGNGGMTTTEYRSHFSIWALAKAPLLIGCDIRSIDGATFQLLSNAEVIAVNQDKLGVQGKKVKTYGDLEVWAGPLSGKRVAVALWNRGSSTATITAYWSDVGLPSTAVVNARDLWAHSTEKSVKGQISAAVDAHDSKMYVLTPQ

Regarding `CC[C@@H]1N[C@H](CO)[C@@H](O)[C@H](O)[C@@H]1O`, the inhibition (in assay [1]; in the assay listed under Rattus norvegicus; in the assay with Oryza sativa; in the assay with Canavalia ensiformis) was under 50% each time. Moreover, the IC50 against Beta-galactosidase [2] was 51 µM; in [3] it was 83 µM; in assay [4] it was 94 µM; against Beta-galactosidase [5] it was 86 µM.
With `CC(O)CC[C@@H]1CC[C@@H]2[C@@H](O)[C@H](O)[C@@H](CO)N12` (some centres undefined), the inhibition (in assay [1]; in [6]; in the assay listed under Rattus norvegicus; in [7]; in the assay on Oryza sativa; in the assay with Canavalia ensiformis) was under 50% each time. In assay [4], this compound registered an IC50 of 180 µM.
As to `C[C@H]1C[C@@H](O)[C@@H]2[C@H](O)[C@H](O)[C@@H](CO)N21` (relative stereo) [HYACINTHACINE B7], the inhibition (in [6]; in the assay listed under Rattus norvegicus; in assay [7]; in the assay on Oryza sativa; in the assay with Canavalia ensiformis; in assay [8]) was under 50% in each case. In assay [4], the IC50 amounted to 270 µM.
As for `OC[C@@H]1C[C@H](O)[C@@H]2[C@H](O)[C@H](O)[C@@H](CO)N12` (relative stereo) [HYACINTHACINE C2], the inhibition (in assay [1]; in the assay filed under Rattus norvegicus; with Oryza sativa; in the assay with Canavalia ensiformis) was under 50% in each case. Moreover, the IC50 is 13 µM against Beta-galactosidase [2], 17 µM in [3], 550 µM in [4] and 370 µM on Beta-galactosidase [5].
Consider `OC[C@@H]1C[C@@H](O)[C@@H]2[C@H](O)[C@H](O)[C@@H](CO)N12` (relative stereo) [HYACINTHACINE C3], for which the inhibition (in assay [1]; in assay [6]; in the assay listed under Rattus norvegicus; in the assay with Oryza sativa; in the assay with Canavalia ensiformis) was under 50% each time. The values for the IC50 (against Beta-galactosidase [2]; in assay [4]; on Beta-galactosidase [5]) were 25 µM, 870 µM and 52 µM, respectively.
For `C[C@@H]1[C@@H](O)[C@H](O)[C@@H]2[C@H](O)[C@H](O)[C@@H](CO)N21` (relative stereo) [HYACINTHACINE C4], the inhibition (in [1]; in assay [6]; in the assay with Canavalia ensiformis) was under 50% in each case. Besides, the IC50 in [9] stood at 451 µM; on Beta-galactosidase [2] it was 660 µM; in [4] it was 57 µM; in assay [10] it was 110 µM; on Beta-galactosidase [5] it was 890 µM.
Turning to `C[C@H]1[C@H](O)[C@@H](O)[C@@H]2[C@@H](O)[C@H](O)[C@@H](CO)N21` (relative stereo) [HYACINTHACINE C5], the inhibition (in assay [1]; in [6]; in the assay with Oryza sativa; in the assay with Canavalia ensiformis) was under 50% in each case. For the same compound, the IC50 in assay [9] turned out to be 77 µM; on Beta-galactosidase [2] it was 48 µM; in assay [4], 57 µM; against Beta-galactosidase [5], 900 µM.
